Reference: the OligoGym collection
“And” between values parts separate entries of the source, which are not always exact repeats. Equal entries are not always repeated. After the bases stand the sugars from the 5' end (letter, count) and the backbone: PS all phosphorothioate, else s phosphorothioate and o phosphodiester by linkage. Methylation of C is not given here. k = constrained ethyl (cEt); d = 2'-deoxy (DNA)

Target: MALAT1
Conditions: ASO, A431, 0.005 µM

Sequence	target mRNA inhibition
TAAATTGATGGGCTTT (sugars k3 d10 k3, PS)	37%
TAACAGCACATCATGC (sugars k3 d10 k3, PS)	21%
TAACATGCAATACTGC (sugars k3 d10 k3, PS)	18%
TAACCTATTGACTATA (sugars k3 d10 k3, PS)	22%
TAAGAGACATTCAAGC (sugars k3 d10 k3, PS)	17%
TAAGATGCTAGCTTGG (sugars k3 d10 k3, PS)	25%
TAAGCAATATCTTAGT (sugars k3 d10 k3, PS)	16%
TAAGGAGACAGCTTTC (sugars k3 d10 k3, PS)	16%
TAAGTTTTCAGCAGTA (sugars k3 d10 k3, PS)	-14%
TACAAAACGAATTCAG (sugars k3 d10 k3, PS)	20%
TACAAACTGCTTACAG (sugars k3 d10 k3, PS)	39%
TACAATCAAGTCAAGC (sugars k3 d10 k3, PS)	-2%
TACACTCCTTCTCTAA (sugars k3 d10 k3, PS)	-18%
TACAGAAGTCTCGGGC (sugars k3 d10 k3, PS)	28%
TACCAACCACTCGCTT (sugars k3 d10 k3, PS)	1%
TACCCCAACTAAACAT (sugars k3 d10 k3, PS)	18%
TACTATTGTCCCATAA (sugars k3 d10 k3, PS)	22%
TACTCCAAGCATTGGG (sugars k3 d10 k3, PS)	0%
TACTCTTGATCTTGAA (sugars k3 d10 k3, PS)	46%
TACTGGTTTAAGTTGG (sugars k3 d10 k3, PS)	67% and 77%
TACTTAGCTGTGGTTT (sugars k3 d10 k3, PS)	23%
TACTTCATTACCCCAA (sugars k3 d10 k3, PS)	34%
TACTTGCCAACAGAAC (sugars k3 d10 k3, PS)	19%

Sequence	target mRNA inhibition
TACTTTAAGCCTTCGG (sugars k3 d10 k3, PS)	29%
TAGAATCTTACTTGAT (sugars k3 d10 k3, PS)	34%
TAGACGGAGAACAACT (sugars k3 d10 k3, PS)	29%
TAGAGCTACTTAGCTG (sugars k3 d10 k3, PS)	18%
TAGATTCCGTAACTTT (sugars k3 d10 k3, PS)	58%
TAGCAGTAACATCTGA (sugars k3 d10 k3, PS)	46%
TAGGCCATCATACTGC (sugars k3 d10 k3, PS)	6%
TAGGTATAGTTTACCA (sugars k3 d10 k3, PS)	2%
TAGTAACCTATTGACT (sugars k3 d10 k3, PS)	-36%
TAGTAGCTTTTTGATG (sugars k3 d10 k3, PS)	31%
TAGTCTGAAGAATACC (sugars k3 d10 k3, PS)	23%
TAGTTAATGTCAGCCC (sugars k3 d10 k3, PS)	41%
TAGTTGGCATCAAGGC (sugars k3 d10 k3, PS)	72% and 69%
TATAGACCCCTGACTT (sugars k3 d10 k3, PS)	42%
TATAGACGGAGAACAA (sugars k3 d10 k3, PS)	30%
TATAGCATCTGTGGAA (sugars k3 d10 k3, PS)	20%
TATATAAGGTCAATAG (sugars k3 d10 k3, PS)	5%
TATATTTAAGGCCTTC (sugars k3 d10 k3, PS)	45%
TATCAATTCACCAAGG (sugars k3 d10 k3, PS)	1%
TATCACTCAGCTGGAT (sugars k3 d10 k3, PS)	34%
TATCTTCACCACGAAC (sugars k3 d10 k3, PS)	0%
TATGACACTTTCCTTG (sugars k3 d10 k3, PS)	25%
TATTAAGAGCTGCTAT (sugars k3 d10 k3, PS)	25%

Sequence	target mRNA inhibition
TATTCCTTTCATAGAG (sugars k3 d10 k3, PS)	11%
TATTGGAAAACTTAAC (sugars k3 d10 k3, PS)	26%
TCAACAATCACTACTC (sugars k3 d10 k3, PS)	16%
TCAACATTTGGCCTAC (sugars k3 d10 k3, PS)	21%
TCAAGCATTCCTTCGG (sugars k3 d10 k3, PS)	73% and 67%
TCAAGGCACTGATCAC (sugars k3 d10 k3, PS)	49%
TCAATCACAAATACGA (sugars k3 d10 k3, PS)	30%
TCAATTTATAGACCCC (sugars k3 d10 k3, PS)	47%
TCACAAGGCAAATCGC (sugars k3 d10 k3, PS)	7%
TCACCAAATCGCACTG (sugars k3 d10 k3, PS)	20%
TCACCTTCGGTTTAAT (sugars k3 d10 k3, PS)	28%
TCAGACCTTCTGAACC (sugars k3 d10 k3, PS)	-6%
TCAGGGTTATGCTTAT (sugars k3 d10 k3, PS)	64% and 59%
TCATTGGGAGTTACTT (sugars k3 d10 k3, PS)	57%
TCCAAGAACTAGCACC (sugars k3 d10 k3, PS)	-5%
TCCACCCCCACGCCAA (sugars k3 d10 k3, PS)	-9%
TCCACTTGATCCCAAC (sugars k3 d10 k3, PS)	47% and 56%
TCCAGGACTTGGCAGT (sugars k3 d10 k3, PS)	23%
TCCAGTCTACAAGTTA (sugars k3 d10 k3, PS)	31%
TCCCAACCGTAACAGG (sugars k3 d10 k3, PS)	2%
TCCCCAATCAAGATTT (sugars k3 d10 k3, PS)	18%
TCCCTGAAGGTGTTCG (sugars k3 d10 k3, PS)	18%
TCCCTTTACACCTCAG (sugars k3 d10 k3, PS)	25%

Sequence	target mRNA inhibition
TCCTACCACTCCCAAT (sugars k3 d10 k3, PS)	30%
TCCTAGCTTCACCACC (sugars k3 d10 k3, PS)	44%
TCCTGATCTGGTCCAT (sugars k3 d10 k3, PS)	42%
TCCTGCGACTTGCTCC (sugars k3 d10 k3, PS)	15%
TCCTTAGTTGGCATCA (sugars k3 d10 k3, PS)	76% and 68%
TCCTTCGGATGCTTCA (sugars k3 d10 k3, PS)	56%
TCGATGGAAAAATTTC (sugars k3 d10 k3, PS)	30%
TCGCAGACAAAGTTTC (sugars k3 d10 k3, PS)	31%
TCGCATCACCGGAATT (sugars k3 d10 k3, PS)	4%
TCGCCTTCAAATTATT (sugars k3 d10 k3, PS)	35%
TCGGATGCTTCACTCC (sugars k3 d10 k3, PS)	37%
TCTAAAAGCATTGCCC (sugars k3 d10 k3, PS)	29%
TCTAACAGCACATCAT (sugars k3 d10 k3, PS)	22%
TCTAAGATTGTAAGCA (sugars k3 d10 k3, PS)	53%
TCTAATAGCAGCGGGA (sugars k3 d10 k3, PS)	16%
TCTACAAGTTACATGT (sugars k3 d10 k3, PS)	23%
TCTCAATTTGGCTATC (sugars k3 d10 k3, PS)	29%
TCTCAGGGTTATGCTT (sugars k3 d10 k3, PS)	59% and 81%
TCTCATACACTCACTA (sugars k3 d10 k3, PS)	11%
TCTCATTTATTTCGGC (sugars k3 d10 k3, PS)	79% and 93%
TCTCCAATGGACATCT (sugars k3 d10 k3, PS)	8%
TCTCCGAAGACACAGA (sugars k3 d10 k3, PS)	0%
TCTGATCTGCGGCCCC (sugars k3 d10 k3, PS)	-18%

Sequence	target mRNA inhibition
TCTGCGGTTTCCTCAA (sugars k3 d10 k3, PS)	49%
TCTTAACAGCTTATGG (sugars k3 d10 k3, PS)	31%
TCTTAACTCAAAGTCC (sugars k3 d10 k3, PS)	39%
TCTTAATCAGTTACAA (sugars k3 d10 k3, PS)	9%
TCTTACTTGATAATAC (sugars k3 d10 k3, PS)	10%
TCTTGAATTACTTCCG (sugars k3 d10 k3, PS)	76% and 55%
TGAAAACCCACTCTTG (sugars k3 d10 k3, PS)	0%
TGAAAACTCCCCCCCG (sugars k3 d10 k3, PS)	21%
TGAACTATCACAATTC (sugars k3 d10 k3, PS)	24%
TGAAGCATACCTTAAC (sugars k3 d10 k3, PS)	31%
TGAAGTCAAGACAACT (sugars k3 d10 k3, PS)	1%
TGACAAGCAATTAACT (sugars k3 d10 k3, PS)	28%
TGACTGAATATGAACC (sugars k3 d10 k3, PS)	41%
TGAGGGACAGTAGGTA (sugars k3 d10 k3, PS)	18%
TGAGTATGCTGATAAA (sugars k3 d10 k3, PS)	41%
TGAGTGGTTTTATCTA (sugars k3 d10 k3, PS)	7%
TGATCTGACTTTGTAT (sugars k3 d10 k3, PS)	47%
TGCAAGTTAAACTTAT (sugars k3 d10 k3, PS)	25%
TGCAGGCAAATTAATG (sugars k3 d10 k3, PS)	11%
TGCCAACTAATTGCCA (sugars k3 d10 k3, PS)	23%
TGCCAACTTGGAAGTT (sugars k3 d10 k3, PS)	32%
TGCCACAGGAAGGCTC (sugars k3 d10 k3, PS)	-10%
